Test results from patent publication US7488740B2, “Substituted quinolin-4-ylamine analogues” (Neurogen Corporation, priority 2003, dated 2009).

target: T1, human capsaicin receptor (Homo sapiens, UniProt Q8NER1); assay: Calcium mobilization assay (Example 6); format: cell-based; conditions: concentration required to provide a 50% decrease in the fluorescence response of cells exposed to one IC50 of capsaicin
T1 construct: A cDNA encoding full length human capsaicin receptor recited in U.S. Pat. No. 6,482,611 was subcloned in the plasmid pBK-CMV; expressed in transfected cells
T1 sequence (Q8NER1 whole entry): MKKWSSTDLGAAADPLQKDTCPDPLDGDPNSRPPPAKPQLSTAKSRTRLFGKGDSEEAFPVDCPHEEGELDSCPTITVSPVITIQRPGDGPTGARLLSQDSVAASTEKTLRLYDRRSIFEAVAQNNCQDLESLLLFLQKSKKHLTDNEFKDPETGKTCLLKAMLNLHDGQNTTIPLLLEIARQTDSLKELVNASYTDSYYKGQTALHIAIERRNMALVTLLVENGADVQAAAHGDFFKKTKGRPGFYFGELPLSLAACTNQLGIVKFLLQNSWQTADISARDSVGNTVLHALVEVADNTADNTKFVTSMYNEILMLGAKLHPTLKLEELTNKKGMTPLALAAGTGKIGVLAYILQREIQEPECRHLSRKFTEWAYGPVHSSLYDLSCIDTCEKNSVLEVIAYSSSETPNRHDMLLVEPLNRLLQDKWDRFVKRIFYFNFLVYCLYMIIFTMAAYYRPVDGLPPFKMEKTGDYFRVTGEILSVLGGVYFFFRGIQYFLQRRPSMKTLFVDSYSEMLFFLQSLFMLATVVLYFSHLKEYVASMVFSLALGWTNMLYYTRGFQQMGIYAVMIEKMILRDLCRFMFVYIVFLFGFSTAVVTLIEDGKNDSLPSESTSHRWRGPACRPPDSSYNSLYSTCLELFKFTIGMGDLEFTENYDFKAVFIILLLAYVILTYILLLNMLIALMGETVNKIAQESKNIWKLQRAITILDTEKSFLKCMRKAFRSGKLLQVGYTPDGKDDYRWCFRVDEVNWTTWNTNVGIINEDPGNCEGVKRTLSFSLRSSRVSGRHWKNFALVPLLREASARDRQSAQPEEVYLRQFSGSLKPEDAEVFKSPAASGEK
Procedure: Human embryonic kidney (HEK293) cells were transfected with the pBK-CMV expression construct encoding the full length human capsaicin receptor using standard methods. The transfected cells were selected for two weeks in media containing G418 (400 μg/ml) to obtain a pool of stably transfected cells. Independent clones were isolated from this pool by limiting dilution to obtain clonal stable cell lines for use in subsequent experiments.
Cells transfected with expression plasmids (as described in Example 4) and thereby expressing human capsaicin receptor are seeded and grown to 70-90% confluency in FALCON black-walled, clear-bottomed 96-well plates (#3904, BECTON-DICKINSON, Franklin Lakes, N.J.). The culture medium is emptied from the 96 well plates and FLUO-3 AM calcium sensitive dye (Molecular Probes, Eugene, Oreg.) is added to each well (dye solution: 1 mg FLUO-3 AM, 440 μL DMSO and 440 μl 20% pluronic acid in DMSO, diluted 1:250 in Krebs-Ringer HEPES (KRH) buffer (25 mM HEPES, 5 mM KCl, 0.96 mM NaH2PO4, 1 mM MgSO4, 2 mM CaCl2, 5 mM glucose, 1 mM probenecid, pH 7.4), 50 μl diluted solution per well). Plates are covered with aluminum foil and incubated at 37° C. for 1-2 hours in an environment containing 5% CO2. After the incubation, the dye is emptied from the plates, and the cells are washed once with KRH buffer, and, resuspended in KRH buffer.
Agonist (e.g., olvanil, capsaicin, or RTX)-induced calcium mobilization is monitored using either FLUOROSKAN ASCENT (Labsystems, Franklin, Mass.) or FLIPR (fluorometric imaging plate reader system, Molecular Devices, Sunnyvale, Calif.) instruments. Varying concentrations of the antagonists ruthenium red or capsazepine (RBI; Natick, Mass.) are added to cells concurrently with agonist (e.g., 25-50 nM capsaicin). For agonist-induced calcium responses, data obtained between 30 and 60 seconds after agonist application are used to generate the IC50 values. KALEIDAGRAPH software (Synergy Software, Reading, Pa.) is used to fit the data to the equation: y=a*(1/(1+(b/x)^c)) to determine the IC50 for the response. In this equation, y is the maximum fluorescence signal, x is the concentration of the agonist or antagonist, a is the Emax, b corresponds to the IC50 value and c is the Hill coefficient.
To measure the ability of a test compound to antagonize (inhibit) the response of cells expressing capsaicin receptors to capsaicin or other vanilloid agonist, the IC50 of capsaicin is first determined. An additional 20 μl of KRH buffer and 1 μl DMSO is added to each well of cells, prepared as described above. 100 μl capsaicin in KRH buffer is automatically transferred by the FLIPR instrument to each well. An 8-point concentration response curve, with final capsaicin concentrations of 1 nM to 3 μM, is used to determine capsaicin IC50.
Test compounds are dissolved in DMSO, diluted in 20 μl KRH buffer so that the final concentration of test compounds in the assay well is between 1 μM and 5 μM, and added to cells prepared as described above. The 96 well plates containing prepared cells and test compounds are incubated in the dark, at room temperature for 0.5 to 6 hours. It is important that the incubation not continue beyond 6 hours. Just prior to determining the fluorescence response, 100 μl capsaicin in KRH buffer at twice the IC50 concentration determined from the concentration response curve is automatically added by the FLIPR instrument to each well of the 96 well plate for a final sample volume of 200 μl and a final capsaicin concentration equal to the IC50. The final concentration of test compounds in the assay wells is between 1 μM and 5 μM. […] Antagonists of the capsaicin receptor decrease this response by at least about 20%, preferably by at least about 50%, and most preferably by at least 80% as compared to matched control. The concentration of antagonist required to provide a 50% decrease is the IC50 for the antagonist, and is preferably below 1 micromolar, 100 nanomolar, 10 nanomolar or 1 nanomolar. […]

| IC50 [nM] | SMILES |
| --- | --- |
| ≤ 1000 | CC(C)CNCc1cc(Nc2ccc(C(F)(F)F)cc2)c2ccc(-c3ncccc3C(F)(F)F)nc2n1 [Compound 59, 2-[(isobutylamino)methyl]-N-[4-(trifluoromethyl)phenyl]-7-[3-(trifluoromethyl)pyridin-2-yl]-1,8-naphthyridin-4-amine] |
| ≤ 1000 | N#Cc1ccc(Nc2cc(C3CCC3)nc3nc(-c4ncccc4C(F)(F)F)ccc23)nc1 [Compound 100, 6-({2-cyclobutyl-7-[3-(trifluoromethyl)pyridin-2-yl]-1,8-naphthyridin-4-yl}amino)nicotinonitrile] |
| ≤ 1000 | CC(C)N(CCCO)Cc1cc(Nc2ccc(C(F)(F)F)cc2)c2ccc(-c3ncccc3C(F)(F)F)nc2n1 [Compound 78, 3-[isopropyl({4-{[4-(trifluoromethyl)phenyl]amino}-7-[3-(trifluoromethyl)pyridin-2-yl]-1,8-naphthyridin-2-yl}methyl)amino]propan-1-ol] |
| ≤ 1000 | CC(C)C(=O)N(C)Cc1cc(Nc2ccc(C(F)(F)F)cc2)c2ccc(-c3ncccc3C(F)(F)F)nc2n1 [Compound 75, N,2-dimethyl-N-({4-{[4-(trifluoromethyl)phenyl]amino}-7-[3-(trifluoromethyl)pyridin-2-yl]-1,8-naphthyridin-2-yl}methyl)propanamide] |
| ≤ 1000 | CC(C)CCOc1cc(Nc2ccc(C(C)(C)C)cc2)c2ccc(-c3ncccc3C(F)(F)F)cc2n1 [Compound 32, N-(4-tert-butylphenyl)-2-(isopentyloxy)-7-[3-(trifluoromethyl)pyridin-2-yl]quinolin-4-amine] |
| ≤ 1000 | Cc1ccc(Nc2ccnc3nc(-c4ncccc4C(F)(F)F)ccc23)nc1 [Compound 140, N-(5-methylpyridin-2-yl)-7-[3-(trifluoromethyl)pyridin-2-yl]-1,8-naphthyridin-4-amine] |
| ≤ 1000 | Cc1ccc(Nc2cc(C3CCC3)nc3nc(-c4ncccc4C(F)(F)F)ccc23)nc1 [Compound 99, 2-cyclobutyl-N-(5-methylpyridin-2-yl)-7-[3-(trifluoromethyl)pyridin-2-yl]-1,8-naphthyridin-4-amine] |
| ≤ 1000 | CC(C)(C)c1ccc(Nc2cc(N3CCCC3)nc3cc(-c4ncccc4C(F)(F)F)ccc23)cc1 [Compound 28, N-(4-tert-butylphenyl)-2-pyrrolidin-1-yl-7-[3-(trifluoromethyl)pyridin-2-yl]quinolin-4-amine] |
| ≤ 1000 | COC(C)c1cc(Nc2ccc(C(F)(F)F)cn2)c2ccc(-c3ncccc3C(F)(F)F)nc2n1 (stereo not drawn) [Compound 119, 2-(1-methoxyethyl)-7-[3-(trifluoromethyl)pyridin-2-yl]-N-[5-(trifluoromethyl)pyridin-2-yl]-1,8-naphthyridin-4-amine] |
| ≤ 1000 | CC(C)c1cc(Nc2ccc(C#N)cn2)c2ccc(-c3ncccc3C(F)(F)F)nc2n1 [Compound 104, 6-({2-isopropyl-7-[3-(trifluoromethyl)pyridin-2-yl]-1,8-naphthyridin-4-yl}amino)nicotinonitrile] |
| ≤ 1000 | CCS(=O)(=O)N(C)Cc1cc(Nc2ccc(C(F)(F)F)cc2)c2ccc(-c3ncccc3C(F)(F)F)nc2n1 [Compound 71, N-methyl-N-({4-{[4-(trifluoromethyl)phenyl]amino}-7-[3-(trifluoromethyl)pyridin-2-yl]-1,8-naphthyridin-2-yl}methyl)ethanesulfonamide] |
| ≤ 1000 | COCc1cc(Nc2ccc(C#N)cc2)c2ccc(-c3ncccc3C(F)(F)F)nc2n1 [Compound 11, 4-({2-(methoxymethyl)-7-[3-(trifluoromethyl)pyridin-2-yl]-1,8-naphthyridin-4-yl}amino)benzonitrile] |
| ≤ 1000 | CC(=O)c1cc(Nc2ccc(C(F)(F)F)cn2)c2ccc(-c3ncccc3C(F)(F)F)nc2n1 [Compound 133, 1-(7-[3-(trifluoromethyl)pyridin-2-yl]-4-{[5-(trifluoromethyl)pyridin-2-yl]amino}-1,8-naphthyridin-2-yl)ethanone] |
| ≤ 1000 | FC(F)(F)c1cccnc1-c1ccc2c(Nc3ccc(Cl)cn3)ccnc2n1 [Compound 139, N-(5-chloropyridin-2-yl)-7-[3-(trifluoromethyl)pyridin-2-yl]-1,8-naphthyridin-4-amine] |
| ≤ 1000 | N#Cc1cc(Nc2ccc(C(F)(F)F)cn2)c2ccc(-c3ncccc3C(F)(F)F)nc2n1 [Compound 125, 7-[3-(trifluoromethyl)pyridin-2-yl]-4-{[5-(trifluoromethyl)pyridin-2-yl]amino}-1,8-naphthyridine-2-carbonitrile] |
| ≤ 1000 | CCOc1cc(Nc2ccc(C(C)(C)C)cc2)c2ccc(-c3ncccc3C(F)(F)F)nc2n1 [Compound 37, N-(4-tert-butylphenyl)-2-ethoxy-7-[3-(trifluoromethyl)pyridin-2-yl]-1,8-naphthyridin-4-amine] |
| ≤ 1000 | COCCN(CCOC)Cc1cc(Nc2ccc(C(F)(F)F)cc2)c2ccc(-c3ncccc3C(F)(F)F)nc2n1 [Compound 50, 2-{[bis(2-methoxyethyl)amino]methyl}-N-[4-(trifluoromethyl)phenyl]-7-[3-(trifluoromethyl)pyridin-2-yl]-1,8-naphthyridin-4-amine] |
| ≤ 1000 | CN(C)CCOCc1cc(Nc2ccc(C(F)(F)F)cc2)c2ccc(-c3ncccc3C(F)(F)F)nc2n1 [Compound 25, 2-{[2-(dimethylamino)ethoxy]methyl}-N-[4-(trifluoromethyl)phenyl]-7-[3-(trifluoromethyl)pyridin-2-yl]-1,8-naphthyridin-4-amine] |
| ≤ 1000 | CCCc1cc(Nc2ccc(CC)cn2)c2ccc(-c3ncccc3C(F)(F)F)nc2n1 [Compound 128, N-(5-ethylpyridin-2-yl)-2-propyl-7-[3-(trifluoromethyl)pyridin-2-yl]-1,8-naphthyridin-4-amine] |
| ≤ 1000 | CCN(CCCO)Cc1cc(Nc2ccc(C(F)(F)F)cc2)c2ccc(-c3ncccc3C(F)(F)F)nc2n1 [Compound 77, 3-[ethyl({4-{[4-(trifluoromethyl)phenyl]amino}-7-[3-(trifluoromethyl)pyridin-2-yl]-1,8-naphthyridin-2-yl}methyl)amino]propan-1-ol] |

| SMILES | IC50 [nM] |
| --- | --- |
| CC(C)COCc1cc(Nc2ccc(S(=O)(=O)C(F)(F)F)cc2)c2ccc(-c3ncccc3C(F)(F)F)nc2n1 [Compound 74, 2-(isobutoxymethyl)-7-[3-(trifluoromethyl)pyridin-2-yl]-N-{4-[(trifluoromethyl)sulfonyl]phenyl}-1,8-naphthyridin-4-amine] | ≤ 1000 |
| CC(C)COCc1cc(Nc2ccc(C(C)(C)O)cc2)c2ccc(-c3ncccc3C(F)(F)F)nc2n1 [Compound 57, 2-[4-({2-(isobutoxymethyl)-7-[3-(trifluoromethyl)pyridin-2-yl]-1,8-naphthyridin-4-yl}amino)phenyl]propan-2-ol] | ≤ 1000 |
| CC(C)COCc1cc(Nc2ccc(F)cc2)c2ccc(-c3ncccc3C(F)(F)F)nc2n1 [Compound 54, N-(4-fluorophenyl)-2-(isobutoxymethyl)-7-[3-(trifluoromethyl)pyridin-2-yl]-1,8-naphthyridin-4-amine] | ≤ 1000 |
| CC(C)COCc1cc(Nc2ccc(S(=O)(=O)N(C)C)cc2)c2ccc(-c3ncccc3C(F)(F)F)nc2n1 [Compound 68, 4-({2-(isobutoxymethyl)-7-[3-(trifluoromethyl)pyridin-2-yl]-1,8-naphthyridin-4-yl]amino)-N,N-dimethylbenzenesulfonamide] | ≤ 1000 |
